{
  "source": "PubChem BioAssay (NCI)",
  "assay_in_all_cases": "NCI tumour cell line growth inhibition, 48 h",
  "key": {"[1]": {"system": "A549 NSCLC"}, "[2]": {"system": "CAKI-1 renal"}, "[3]": {"system": "CCRF-CEM leukemia"}, "[4]": {"system": "COLO 205 colon"}, "[5]": {"system": "DMS 114 small cell lung"}, "[6]": {"system": "DMS 273 small cell lung"}, "[7]": {"system": "EKVX NSCLC"}, "[8]": {"system": "HCT-15 colon"}, "[9]": {"system": "HL-60(TB) leukemia"}, "[10]": {"system": "HT29 colon"}, "[11]": {"system": "IGROV1 ovarian"}, "[12]": {"system": "K-562 leukemia"}, "[13]": {"system": "KM12 colon"}, "[14]": {"system": "LOX IMVI melanoma"}, "[15]": {"system": "M14 melanoma"}, "[16]": {"system": "M19-MEL melanoma"}, "[17]": {"system": "MOLT-4 leukemia"}, "[18]": {"system": "NCI-H226 lung"}, "[19]": {"system": "NCI-H23 lung"}, "[20]": {"system": "NCI-H522 lung"}, "[21]": {"system": "OVCAR-3 ovarian"}, "[22]": {"system": "OVCAR-8 ovarian"}, "[23]": {"system": "RPMI-8226 leukemia"}, "[24]": {"system": "RXF 393 renal"}, "[25]": {"system": "SF-268 CNS"}, "[26]": {"system": "SF-295 CNS"}, "[27]": {"system": "SF-539 CNS"}, "[28]": {"system": "SK-MEL-28 melanoma"}, "[29]": {"system": "SK-MEL-5 melanoma"}, "[30]": {"system": "SK-OV-3 ovarian"}, "[31]": {"system": "SN12C renal"}, "[32]": {"system": "SNB-19 CNS"}, "[33]": {"system": "SNB-75 CNS"}, "[34]": {"system": "SW-620 colon"}, "[35]": {"system": "TK-10 renal"}, "[36]": {"system": "UACC-257 melanoma"}, "[37]": {"system": "UACC-62 melanoma"}, "[38]": {"system": "UO-31 renal"}, "[39]": {"system": "786-0 renal"}, "[40]": {"system": "ACHN renal"}, "[41]": {"system": "HCC-2998 colon"}, "[42]": {"system": "HCT-116 colon"}, "[43]": {"system": "HOP-62 NSCLC"}, "[44]": {"system": "HOP-92 NSCLC"}, "[45]": {"system": "KM20L2 colon"}, "[46]": {"system": "MALME-3M melanoma"}, "[47]": {"system": "NCI-H460 lung"}, "[48]": {"system": "OVCAR-4 ovarian"}, "[49]": {"system": "OVCAR-5 ovarian"}, "[50]": {"system": "SK-MEL-2 melanoma"}, "[51]": {"system": "SR leukemia"}, "[52]": {"system": "U251 CNS"}, "[53]": {"system": "XF 498 CNS"}},
  "note": "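Five concentrations, 48 hours, 96-well plates. Definition used: TGI = concentration required for complete inhibition of growth.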",
  "data": [
    {"smiles": "O=C1N[C@@H]2CCC[C@@H]2[C@@H]1c1ccc(Cl)cc1", "values": [
      {"measurement": "TGI", "setting": "[1]", "value": "> 100", "unit": "µM"},
      {"measurement": "TGI", "setting": "[2]", "value": "> 100", "unit": "µM"},
      {"measurement": "TGI", "setting": "[3]", "value": "> 100", "unit": "µM"},
      {"measurement": "TGI", "setting": "[4]", "value": "> 100", "unit": "µM"},
      {"measurement": "TGI", "setting": "[5]", "value": "> 100", "unit": "µM"},
      {"measurement": "TGI", "setting": "[6]", "value": "> 100", "unit": "µM"},
      {"measurement": "TGI", "setting": "[7]", "value": "> 100", "unit": "µM"},
      {"measurement": "TGI", "setting": "[8]", "value": "> 100", "unit": "µM"},
      {"measurement": "TGI", "setting": "[9]", "value": "> 100", "unit": "µM"},
      {"measurement": "TGI", "setting": "[10]", "value": "> 100", "unit": "µM"},
      {"measurement": "TGI", "setting": "[11]", "value": "> 100", "unit": "µM"},
      {"measurement": "TGI", "setting": "[12]", "value": "> 100", "unit": "µM"},
      {"measurement": "TGI", "setting": "[13]", "value": "> 100", "unit": "µM"},
      {"measurement": "TGI", "setting": "[14]", "value": "> 100", "unit": "µM"},
      {"measurement": "TGI", "setting": "[15]", "value": "> 100", "unit": "µM"},
      {"measurement": "TGI", "setting": "[16]", "value": "> 100", "unit": "µM"},
      {"measurement": "TGI", "setting": "[17]", "value": "> 100", "unit": "µM"},
      {"measurement": "TGI", "setting": "[18]", "value": "> 100", "unit": "µM"},
      {"measurement": "TGI", "setting": "[19]", "value": "> 100", "unit": "µM"},
      {"measurement": "TGI", "setting": "[20]", "value": "> 100", "unit": "µM"},
      {"measurement": "TGI", "setting": "[21]", "value": "> 100", "unit": "µM"},
      {"measurement": "TGI", "setting": "[22]", "value": "> 100", "unit": "µM"},
      {"measurement": "TGI", "setting": "[23]", "value": "> 100", "unit": "µM"},
      {"measurement": "TGI", "setting": "[24]", "value": "> 100", "unit": "µM"},
      {"measurement": "TGI", "setting": "[25]", "value": "> 100", "unit": "µM"},
      {"measurement": "TGI", "setting": "[26]", "value": "> 100", "unit": "µM"},
      {"measurement": "TGI", "setting": "[27]", "value": "> 100", "unit": "µM"},
      {"measurement": "TGI", "setting": "[28]", "value": "> 100", "unit": "µM"},
      {"measurement": "TGI", "setting": "[29]", "value": "> 100", "unit": "µM"},
      {"measurement": "TGI", "setting": "[30]", "value": "> 100", "unit": "µM"},
      {"measurement": "TGI", "setting": "[31]", "value": "> 100", "unit": "µM"},
      {"measurement": "TGI", "setting": "[32]", "value": "> 100", "unit": "µM"},
      {"measurement": "TGI", "setting": "[33]", "value": "> 100", "unit": "µM"},
      {"measurement": "TGI", "setting": "[34]", "value": "> 100", "unit": "µM"},
      {"measurement": "TGI", "setting": "[35]", "value": "> 100", "unit": "µM"},
      {"measurement": "TGI", "setting": "[36]", "value": "> 100", "unit": "µM"},
      {"measurement": "TGI", "setting": "[37]", "value": "> 100", "unit": "µM"},
      {"measurement": "TGI", "setting": "[38]", "value": "> 100", "unit": "µM"}
    ]},
    {"smiles": "O=C(c1ccccc1)c1c(CC(O)c2cccnc2)n(C(=O)c2ccccc2)c2ccccc12", "note": "(stereo unspecified)", "values": [
      {"measurement": "TGI", "setting": "[39]", "value": 99.4, "unit": "µM"},
      {"measurement": "TGI", "setting": "[1]", "value": "> 100", "unit": "µM"},
      {"measurement": "TGI", "setting": "[40]", "value": 82.7, "unit": "µM"},
      {"measurement": "TGI", "setting": "[2]", "value": 70.6, "unit": "µM"},
      {"measurement": "TGI", "setting": "[3]", "value": 63.4, "unit": "µM"},
      {"measurement": "TGI", "setting": "[4]", "value": 40.6, "unit": "µM"},
      {"measurement": "TGI", "setting": "[5]", "value": 74.2, "unit": "µM"},
      {"measurement": "TGI", "setting": "[6]", "value": 56.2, "unit": "µM"},
      {"measurement": "TGI", "setting": "[41]", "value": 35, "unit": "µM"},
      {"measurement": "TGI", "setting": "[42]", "value": 30.8, "unit": "µM"},
      {"measurement": "TGI", "setting": "[8]", "value": 60.3, "unit": "µM"},
      {"measurement": "TGI", "setting": "[9]", "value": 49, "unit": "µM"},
      {"measurement": "TGI", "setting": "[43]", "value": 30.4, "unit": "µM"},
      {"measurement": "TGI", "setting": "[44]", "value": 30.9, "unit": "µM"},
      {"measurement": "TGI", "setting": "[10]", "value": 35.6, "unit": "µM"},
      {"measurement": "TGI", "setting": "[11]", "value": 55.5, "unit": "µM"},
      {"measurement": "TGI", "setting": "[12]", "value": 75.7, "unit": "µM"},
      {"measurement": "TGI", "setting": "[13]", "value": 36.3, "unit": "µM"},
      {"measurement": "TGI", "setting": "[45]", "value": 42, "unit": "µM"},
      {"measurement": "TGI", "setting": "[15]", "value": 33.5, "unit": "µM"},
      {"measurement": "TGI", "setting": "[16]", "value": 38.3, "unit": "µM"},
      {"measurement": "TGI", "setting": "[46]", "value": 43.3, "unit": "µM"},
      {"measurement": "TGI", "setting": "[17]", "value": 47.7, "unit": "µM"},
      {"measurement": "TGI", "setting": "[18]", "value": 24.6, "unit": "µM"},
      {"measurement": "TGI", "setting": "[19]", "value": 36.5, "unit": "µM"},
      {"measurement": "TGI", "setting": "[47]", "value": 36.4, "unit": "µM"},
      {"measurement": "TGI", "setting": "[20]", "value": 30.1, "unit": "µM"},
      {"measurement": "TGI", "setting": "[21]", "value": 32.9, "unit": "µM"},
      {"measurement": "TGI", "setting": "[48]", "value": 42.4, "unit": "µM"},
      {"measurement": "TGI", "setting": "[49]", "value": 37.6, "unit": "µM"},
      {"measurement": "TGI", "setting": "[22]", "value": "> 100", "unit": "µM"},
      {"measurement": "TGI", "setting": "[23]", "value": 44.2, "unit": "µM"},
      {"measurement": "TGI", "setting": "[25]", "value": 59.4, "unit": "µM"},
      {"measurement": "TGI", "setting": "[26]", "value": 35.6, "unit": "µM"},
      {"measurement": "TGI", "setting": "[27]", "value": 30.6, "unit": "µM"},
      {"measurement": "TGI", "setting": "[50]", "value": 35.8, "unit": "µM"},
      {"measurement": "TGI", "setting": "[28]", "value": 31.5, "unit": "µM"},
      {"measurement": "TGI", "setting": "[29]", "value": 31, "unit": "µM"},
      {"measurement": "TGI", "setting": "[32]", "value": 63.1, "unit": "µM"},
      {"measurement": "TGI", "setting": "[33]", "value": 32.4, "unit": "µM"},
      {"measurement": "TGI", "setting": "[51]", "value": 35.1, "unit": "µM"},
      {"measurement": "TGI", "setting": "[34]", "value": 74.9, "unit": "µM"},
      {"measurement": "TGI", "setting": "[35]", "value": 86.3, "unit": "µM"},
      {"measurement": "TGI", "setting": "[52]", "value": 30.7, "unit": "µM"},
      {"measurement": "TGI", "setting": "[36]", "value": 42, "unit": "µM"},
      {"measurement": "TGI", "setting": "[37]", "value": 34.3, "unit": "µM"},
      {"measurement": "TGI", "setting": "[38]", "value": 32.6, "unit": "µM"},
      {"measurement": "TGI", "setting": "[53]", "value": 27.1, "unit": "µM"}
    ]}
  ]
}
